How the values were obtained:
[1] = system: monocyte-derived macrophages (MDM); assay: Intracellular CBV-TP in MDM after 100 μM ABC or ProTide nanoformulations (uptake and retention); format: cell-based; conditions: human
Description: Briefly, MDM were treated with different nanoformulations at a concentration of 100 μM for 1, 2, 4 and 8 hours. At select time points, adherent MDM were collected in 1 mL PBS after washing with 1 mL PBS twice. MDM were pelleted by centrifugation at 3,000 rpm for 8 minutes. The cell pellet was reconstituted in 200 μl methanol and probe sonication (10 seconds) was used to break the cells and extract drugs. After probe sonication, cell debris was pelleted by centrifugation at 14,000 rpm for 10 minutes and 4° C. The supernatant was analyzed for prodrug level using HPLC-UV/Vis. For retention, MDM were treated with 100 μM different nanoformulations for 8 hours. The nanoformulation-containing media were replaced with fresh media after washing MDM with PBS twice. At days 1, 5, 10, 15, 20, 25 and 30, MDM were collected in 1 mL PBS after washing with 1 mL PBS twice. The samples were processed as described above for analysis using HPLC. Intracellular CBV-TP levels were also measured for as an indicator of cell uptake and retention. Briefly, cells were scraped into PBS, pelleted by centrifugation at 3,000 rpm for 8 minutes, and reconstituted in 200 μl 70% methanol. CBV-TP was extracted, and the samples were analyzed by LC-MS/MS as described (Gautam, et al., J. Pharm. Biomed. Anal. (2018) 153:248-259).

[2] = system: monocyte-derived macrophages (MDM); assay: Macrophage uptake and retention of ABC, NMABC, NPABC; format: cell-based, human; conditions: 100 μM, 8 hours loading
Description: Macrophage uptake and retention. Human monocytes were obtained by leukapheresis from HIV-1/2 and hepatitis B seronegative donors, and then purified by counter-current centrifugal elutriation as described (Balkundi, et al., Intl. J. Nanomed. (2011) 6:3393-3404; Nowacek, et al., Nanomed. (2009) 4(8):903-917). Human monocytes were plated in a 12-well plate at a density of 1.0×10^6 cells per well using DMEM supplemented with 10% heat-inactivated pooled human serum, 1% glutamine, 10 μg/mL ciprofloxacin, and 50 μg/mL gentamicin. Cells were maintained at 37° C. in a 5% CO2 incubator. After 7 days of differentiation in the presence of 1000 U/mL recombinant human macrophage colony stimulating factor (MCSF), MDM were treated with 100 μM ABC, nanoformulated myristoylated ABC (NMABC; described in PCT/US15/54826), or NPABC. Uptake of drug was assessed by measurements of intracellular drug concentrations at 1, 2, 4 and 8 hours after treatment. For drug retention studies, cells were treated for 8 hours then washed with PBS and maintained with half-media changes every other day until collection at days 1, 5, 10, 15 and 20. For both studies, adherent MDM were washed with PBS, then scraped into PBS, and counted at indicated time points using an Invitrogen Countess Automated Cell Counter (Carlsbad, Calif.). […] Drug content was determined by UPLC-UV/Vis.

HIV-1ADA [3] = assay: Antiretroviral efficacy of nanoformulations in MDM challenged with HIV-1ADA (RT activity, p24); format: cell-based; conditions: 100 μM 8 hours, all time points
Description: Antiretroviral efficacy of nanoformulations: Antiviral efficacies of ABC and the ProTide nanoformulations in MDM were assessed as described (Singh, et al., Nanomedicine (2016) 11:1913-1927). MDM were treated with 100 μM different nanoformulations for 8 hours. Then nanoformulation-containing medium was replaced with fresh medium after washing MDM with PBS twice. Half media changes were conducted every other day. At predetermined time points, days 1, 5, 10, 15, 20, 25 and 30, MDM were infected with HIV-1ADA for 4 hours at a MOI of 0.1 and cultured with every-other-day half media changes for an additional 10 days. At day 10, supernatant was collected for RT assay and MDM were fixed with paraformaldehyde and immunostained for expression of HIVp24. Untreated, uninfected MDM served as negative controls (control), while MDM exposed to HIV-1ADA but not treated with nanoformulations, served as positive controls (HIV-1). For NM3ABC, a concentration response study was also conducted. MDM were treated with 1, 10, 25, 50 or 100 μM NM3ABC for 8 hours. The treated MDM were then washed twice with PBS. MDM were cultured for an additional 30 days in fresh media with half media changes every other day. At day 30, MDM were challenged with HIV-1ADA at a MOI of 0.1 for 4 hours. Excess virus was washed out with PBS and MDM were cultured for another 10 days. […]

HIV-1ADA [4] = assay: IC50 determination of ABC, MABC, PABC in MDM challenged with HIV-1ADA (RT activity); format: cell-based; conditions: Human immunodeficiency virus 1, 240 h, HIV-1ADA MOI 0.1, RT activity day 10, read-out: IC50 on reverse transcriptase
Description: Antiretroviral activities. Antiretroviral efficacy was determined by measurements of HIV reverse transcriptase (RT) activity. For IC50 determination, MDM were exposed to various concentrations (0.01-1000 nM) of ABC, MABC or PABC for 1 hour followed by challenge with HIV-1ADA at a multiplicity of infection (MOI) of 0.1 infectious particles per cell for 4 hours. Following viral challenge, cells were washed and incubated with the same concentration of drug used before infection for an additional 10 days in culture. Culture fluids were collected on day 10 for the measurement of RT activity. To assess antiretroviral efficacy, MDM were treated with 100 μM ABC, PABC or NPABC as described above for 8 hours. After treatment, cells were washed with PBS and cultured with fresh media, with half-media exchanges every other day. At 0, 4, 12 hours, and 1, 5, 10, 15 or 20 days after treatment, cells were challenged with HIV-1ADA at an MOI of 0.1 infectious particles per cell for 16 hours. After viral infection, the cells were cultured an additional 10 days with half-media exchanges every other day. Culture fluids were collected for measurement of RT activity. Cells were fixed with 4% PFA and expression of HIV-1 p24 antigen was determined by immunocytochemistry.

Question: What does the source list for `Nc1nc(NC2CC2)c2ncn([C@H]3C=C[C@@H](CO)C3)c2n1` [ABC, abacavir]?
Answer: decrease of CBV-TP from 4 hours to 8 hours [1]: 37%; retention of CBV-TP in MDMs, detected/sustained until day ([1]; 30 day): 5 days; eliminated from MDM within [2]: within a day; protection against viral infection (HIV-1ADA [3]): minimal protection against viral infection; IC50 (HIV-1ADA [4]): 131 nM
